This passage reports mutagenic call results from PubChem BioAssay AID1259407 (Chemical Carcinogenesis Research Information System (CCRIS), 2018).

Activity calls are given as the source filed them. The rule behind the calls is not given here.

The series relates to CCRIS mutagenicity, Ames/micronucleus/aberration tests. Nature of the series: CCRIS mutagenicity studies.
The mark [1] stands for this setting: Test System: AMES SALMONELLA TYPHIMURIUM, Strain/Indicator: TA98, Metabolic Activation: NONE, Method: STANDARD PLATE.
Setting [2] is: Test System: AMES SALMONELLA TYPHIMURIUM, Strain/Indicator: TA100, Metabolic Activation: NONE, Method: STANDARD PLATE.
Where [3] appears, read: Test System: AMES SALMONELLA TYPHIMURIUM, Strain/Indicator: TA1537, Metabolic Activation: NONE, Method: STANDARD PLATE.
[4] abbreviates: Test System: AMES SALMONELLA TYPHIMURIUM, Strain/Indicator: TA102, Metabolic Activation: NONE, Method: STANDARD PLATE.

On to `CCC(C)ON=O` (stereo not drawn), for which the mutagenic call was “inactive; negative” (Test System: AMES SALMONELLA TYPHIMURIUM, Strain/Indicator: TA98, Metabolic Activation: HAMSTER, LIVER, S-9, AROCLOR 1254, Method: STANDARD PLATE); “inactive; negative” under setting [1]; “inactive; negative” (Test System: AMES SALMONELLA TYPHIMURIUM, Strain/Indicator: TA98, Metabolic Activation: RAT, LIVER, S-9, AROCLOR 1254, Method: STANDARD PLATE); “inactive; negative” (Test System: AMES SALMONELLA TYPHIMURIUM, Strain/Indicator: TA100, Metabolic Activation: HAMSTER, LIVER, S-9, AROCLOR 1254, Method: STANDARD PLATE); “inactive; negative” under setting [2]; “inactive; negative” (Test System: AMES SALMONELLA TYPHIMURIUM, Strain/Indicator: TA100, Metabolic Activation: RAT, LIVER, S-9, AROCLOR 1254, Method: STANDARD PLATE). In addition, the mutagenic call (Test System: AMES SALMONELLA TYPHIMURIUM, Strain/Indicator: TA1535, Metabolic Activation: HAMSTER, LIVER, S-9, AROCLOR 1254, Method: STANDARD PLATE) was “active; positive”; the mutagenic call (Test System: AMES SALMONELLA TYPHIMURIUM, Strain/Indicator: TA1535, Metabolic Activation: NONE, Method: STANDARD PLATE) was “inactive; negative”; the mutagenic call (Test System: AMES SALMONELLA TYPHIMURIUM, Strain/Indicator: TA1535, Metabolic Activation: RAT, LIVER, S-9, AROCLOR 1254, Method: STANDARD PLATE) is “active; positive”; the mutagenic call (Test System: AMES SALMONELLA TYPHIMURIUM, Strain/Indicator: TA1537, Metabolic Activation: HAMSTER, LIVER, S-9, AROCLOR 1254, Method: STANDARD PLATE) was “inactive; negative”; the mutagenic call under setting [3] is “inactive; negative”; the mutagenic call (Test System: AMES SALMONELLA TYPHIMURIUM, Strain/Indicator: TA1537, Metabolic Activation: RAT, LIVER, S-9, AROCLOR 1254, Method: STANDARD PLATE) is “inactive; negative”. Also, the mutagenic call is, setting by setting: (Test System: MOUSE LYMPHOMA, Strain/Indicator: L5178Y (TK+/TK-), Metabolic Activation: NONE, Method: SUSPENSION/PLATE) “active; positive. reevaluation of results: positive”; (Test System: MOUSE LYMPHOMA, Strain/Indicator: L5178Y (TK+/TK-), Metabolic Activation: RAT, LIVER, S-9, AROCLOR 1254, Method: SUSPENSION/PLATE) “active; positive. reevaluation of results: positive”.
For `N[C@@H](CS)C(=O)NCC(=O)O`, under setting [4], the mutagenic call was “active; positive”.
As to `C=C(Br)CBr`, the mutagenic call is, setting by setting: (Test System: AMES SALMONELLA TYPHIMURIUM, Strain/Indicator: TA100, Metabolic Activation: RAT, LIVER, MICROSOMES, PHENOBARBITAL, NADPH COFACTORS, Method: STANDARD PLATE) “active; positive”; (Test System: AMES SALMONELLA TYPHIMURIUM, Strain/Indicator: TA100, Metabolic Activation: RAT, LIVER, MICROSOMES, PHENOBARBITAL, Method: STANDARD PLATE) “active; positive”.
With `CN1C(=O)[C@]23CC4=CC=C[C@H](O)[C@H]4N2C(=O)[C@@]1(CO)SS3`, the mutagenic call is “inactive; negative” under setting [1]; “inactive; negative” (Test System: AMES SALMONELLA TYPHIMURIUM, Strain/Indicator: TA98, Metabolic Activation: RAT LIVER S-9 MIX, Method: STANDARD PLATE); “inactive; negative” (Test System: AMES SALMONELLA TYPHIMURIUM, Strain/Indicator: TA98, Metabolic Activation: S-9, Method: STANDARD PLATE); “inactive; negative” under setting [2]; “inactive; negative” (Test System: AMES SALMONELLA TYPHIMURIUM, Strain/Indicator: TA100, Metabolic Activation: RAT LIVER S-9 MIX, Method: STANDARD PLATE); “inactive; negative” (Test System: AMES SALMONELLA TYPHIMURIUM, Strain/Indicator: TA100, Metabolic Activation: S-9, Method: STANDARD PLATE). For the same compound, the mutagenic call is, setting by setting: under setting [4], “inactive; negative”; (Test System: AMES SALMONELLA TYPHIMURIUM, Strain/Indicator: TA102, Metabolic Activation: RAT LIVER S-9 MIX, Method: STANDARD PLATE) “inactive; negative”; under setting [3], “inactive; negative”; (Test System: AMES SALMONELLA TYPHIMURIUM, Strain/Indicator: TA1537, Metabolic Activation: S-9, Method: STANDARD PLATE) “inactive; negative”.
In the case of `OCc1ccc(C(F)(F)F)cc1`, the mutagenic call under setting [2] is “inactive; negative”.
As to `COc1cc(C(=O)OCCCN2CCCN(CCCOC(=O)c3cc(OC)c(OC)c(OC)c3)CC2)cc(OC)c1OC`, the mutagenic call (Test System: AMES SALMONELLA TYPHIMURIUM, Strain/Indicator: TA98, Metabolic Activation: NONE) is “inactive; negative”; the mutagenic call (Test System: AMES SALMONELLA TYPHIMURIUM, Strain/Indicator: TA98, Metabolic Activation: RAT, LIVER, S-9, PHENOBARBITAL AND 5,6-BENZOFLAVONE) is “inactive; negative”; the mutagenic call (Test System: AMES SALMONELLA TYPHIMURIUM, Strain/Indicator: TA100, Metabolic Activation: NONE) is “inactive; negative”; the mutagenic call (Test System: AMES SALMONELLA TYPHIMURIUM, Strain/Indicator: TA100, Metabolic Activation: RAT, LIVER, S-9, PHENOBARBITAL AND 5,6-BENZOFLAVONE) was “inactive; negative”; the mutagenic call (Test System: AMES SALMONELLA TYPHIMURIUM, Strain/Indicator: TA1535, Metabolic Activation: NONE) is “inactive; negative”; the mutagenic call (Test System: AMES SALMONELLA TYPHIMURIUM, Strain/Indicator: TA1535, Metabolic Activation: RAT, LIVER, S-9, PHENOBARBITAL AND 5,6-BENZOFLAVONE) was “inactive; negative”. For the same compound, the mutagenic call was “inactive; negative” (Test System: AMES SALMONELLA TYPHIMURIUM, Strain/Indicator: TA1537, Metabolic Activation: NONE); “inactive; negative” (Test System: AMES SALMONELLA TYPHIMURIUM, Strain/Indicator: TA1537, Metabolic Activation: RAT, LIVER, S-9, PHENOBARBITAL AND 5,6-BENZOFLAVONE); “inactive; negative” (Test System: E. COLI, Strain/Indicator: WP2 UVRA, Metabolic Activation: NONE); “inactive; negative” (Test System: E. COLI, Strain/Indicator: WP2 UVRA, Metabolic Activation: RAT, LIVER, S-9, PHENOBARBITAL AND 5,6-BENZOFLAVONE).
